Test results published in patent US20030118671A1, “Formulation containing peanut leaf extract and its preparation” (priority 1999, published 2003).

Experiments:
mice = settings: mouse, in vivo; cited from earlier work
spleen cells = assay: Spleen cell rosette test (RFC method); format: in vivo, mice; settings: 4 days after SRBC immunisation
Experimental: (§1) Peripheral blood of mouse, spleen cells rosette formation method. This method was used to observe the effect of drugs on antigen combining cell during the earlier stage of immune, which was used to screen immunopotentiator or immunosuppressant. 7.5 mg cyclophosphamide (manufactured by Shanghai Twelve Pharmaceutical Factory) per 1 kg of body weight of male mouse was injected intraperitoneally. According the recommended method for screening immune drugs disclosed by a person, each group was administrated and immured by injection sheep red blood cell (SRBC). After 4 days, peripheral blood and spleen cell suspension (approximately 9 million spleen cells per milliliter) were obtained from mice, and 1% SRBC and 0.1 mL inactivated calf blood serum were added thereto, intermixed and centrifuged under low-speed for 10 minutes. Then 1% toluidine blue was added in minor amount along the wall of the test tubes. Cell pellet was slightly dispersed by pipette. Well-mixed cell suspension was dropped to blood cell counting chamber and the number of rosette in 1 mm^3 was counted under a microscope. Once lymphocyte was surrounded by more than five SRBC, it was regarded as a rosette.

[1] = system: peripheral blood of mouse; assay: Peripheral blood rosette test (RFC method); format: in vivo, mice; settings: 4 days after SRBC immunisation
Experimental: as §1

mononuclear macrophage = assay: Carbon particulate clearance test; format: in vivo; settings: mice, day 8 after seven days of drug; the values are: carbon clearance K value
Text: This method was used to observe the phagocytosis of mononuclear macrophage. Immunopotentiators can activate the macrophage of mice, and enhance the phagocytosis thereof. In contrast, immunosuppressants suppress these effects. Therefore, K values were increased or decreased by these two kinds of drugs, respectively
Animals and drugs were same to those used above.
Methods: After oral administration of drugs or physiological saline, or intramuscular injection of […], for seven days, 0.05 mL/10 g body weight injected through tail vein in mice on day 8. 20 μL blood was acquired from orbit vein, in 1 and 5 minutes after injection, added to 0.1%Na2CO3 respectively, and shaken up. Optical density was detected with Model-72 spectrophotometer at λ=680 nm. K values were calculated. The results were statistically analyzed and p values were assessed by t-test.

[2] = system: spleen, thymus and lymph node; assay: Immune organs weight assay; format: in vivo, Kunming mice; settings: mice, day 8; leaf extract 84.8 g/1 kg orally 7 days; cortisone acetate 50 mg/1 kg i.m. 3 times
Text: Organ weights of Spleen, thymus and lymph node in animals are increased by most of the immunopotentiating agents, but decreased by immunosuppressive agents. So the assay was used to investigate the effect of the preparation containing leaf extract of A. hypogaea on immunological function.
Animals: male and female (1:1) Kunming mice (provided by Shanghai Bioproduct Institute) were used.
Drugs: leaf extract of A. hypogaea, provided by Shanghai Zhoaxiang Chinese Medicinal Herbs Factory. Injection of cortisone acetate was provided by Shanghai Ninth Pharmaceutical Factory.
Methods: The animals were divided into groups at random after weighting. Mice were administered with 84.8 g/1 kg body weight diluted leaf extract of A. hypogaea (in terms of crude drugs) orally once per day for 7 days. 50 mg/1 kg cortisone acetate was injected intramuscularly (totally 3 times), on 2, 4, 6 days after the administration of leaf extract of A. hypogaea. 0.2 ml/10 g body weight physiological saline was administrated orally in control group, once per day for 7 days. Animals were sacrificed on the day 8 by bleeding from orbit vein. Then, spleen, thymus and lymph node (jaw, axillary fossa, groin) were taken out and weighed immediately. Each organic weight was shown as mg/10 g body weight.

C=CC(C)(O)CCC=C(C)C (stereo not shown) [Linalool]
sedative-hypnotic effect (literature) (mice): positive effects on the sedative-hypnotic

O=P1(N(CCCl)CCCl)NCCCO1 (stereo not shown) [cyclophosphamide]
rosette percent (spleen cells): 20.50 ± 4.29 | rosette percent [1]: 15.93 ± 3.35

CC(=O)OCC(=O)[C@@]1(O)CC[C@H]2[C@@H]3CCC4=CC(=O)CC[C@]4(C)[C@H]3C(=O)C[C@@]21C [cortisone, cortisone acetate]
carbon clearance K value (mononuclear macrophage): 0.00587 ± 0.0033 | lymph node weight [2]: 0.12 ± 0.05 mg/10 g body weight | thymus weight [2]: 3.77 ± 0.83 mg/10 g body weight | weight of spleen [2]: 2.58 ± 1.00 mg/10 g body weight
